Measured values as given in patent US6989383B1, “Method of treating cancer” (Sloan-Kettering Institute For Cancer Research, priority 1998, dated 2006).

Legend:
MCF-7 cells [1] = test: In vitro cell cycle assay (DNA content by flow cytometry); format: cell-based, human; conditions: 24 hour treatment with various concentrations of paclitaxel in presence or absence of 1 μM Compound A
Protocol: FIGS. 4 and 4A-4L: Effect of a Farnesyl-protein Transferase Inhibitor in combination with paclitaxel on the cell cycle of MCF-7 Cells: MCF-7 cells were preincubated for one day, followed by a 24 hour treatment with various concentrations of paclitaxel in the presence or absence of 1 μM Compound A. The DNA contents of the cells were then assessed according to the protocol described in “In vitro cell cycle assay.” The cell population having various DNA quantities was then determined and analyzed graphically. […] FIGS. 4A-4L show the individual histograms in greater detail. FIGS. 4A-4F show the histograms of the treatment in the absence of Compound A and with increasing concentrations of paclitaxel (the left column of FIG. 4). FIGS. 4G-4L show the histograms of the treatment in the presence of 1 μM of Compound A and with increasing concentrations of paclitaxel (the right column of FIG. 4).
Cancer cells (MCF-7, MDA468 or DU-145) are seeded in a 10 cm dish at 1,000,000 cells per dish. After one day in growth media, the cells are exposed to various concentrations of a antineoplastic agent along with vehicle (PBS) or 1 μM FTI in the vehicle. After 24 hours of exposure to the combination or antineoplastic agent, the cells are trypsinized and stained with ethidium bromide. The stained nucleii are analyzed by flow cytometry for evaluation of the DNA content.

MCF-7 cells [2] = test: Mitotic index by bis-benzimide staining and fluorescence microscopy; format: cell-based, human; conditions: paclitaxel/Compound A treatments, manual counting of 1000 cells per group
Protocol: FIG. 5: Specific Effect of a Farnesyl-protein Transferase Inhibitor in combination with pactitaxel on the cell cycle of MCF-7 Cells: The cells which contained the doubled DNA content from the assay described above for FIGS. 4 and 4A-4L were analyzed to determine which particular cell cycle phase was affected by the addition of Compound A to the paclitaxel treatment. Thus, aliquots of the cell populations for the various paclitaxel/Compound A treatments were. fixed in 3% paraformaldehyde for 10 minutes, washed in PBS and stained in 24 μg/ml bis-benzimide in PBS. Mitotic cells were distinguished from interphase cells under fluorescence microscopy by characteristic chromatin condensation and mitotic indices were obtained by manual counting of 1000 cells in each experimental treatment group.

[3] = TFA salt

| SMILES | effect on paclitaxel-induced G2/M phase arrest (MCF-7 cells [1]) | cell cycle phase affected by addition of Compound A to paclitaxel treatment (mitotic indices) (MCF-7 cells [2]) | stability in solution exposed to air [3] |
| --- | --- | --- | --- |
| CCC(C)[C@@H](CO[C@@H](Cc1ccccc1)C(=O)N[C@@H](CCS(C)(=O)=O)C(=O)OC(C)C)NC[C@@H](N)CS (stereo partly drawn) [Compound A, 2(S)-[2(S)-[2(R)-Amino-3-mercapto]-propylamino-3(S)-methyl)-pentyloxy-3-phenylpropionyl-methionine sulfone isopropyl ester] | increases the molar potency with which paclitaxel causes G2/M phase arrest | enhancement in blockage at the G2/M phase of the cell cycle is largely due to an effect on the M-phase |  |
| CC[C@H](C)[C@@H](CO[C@@H](Cc1ccccc1)C(=O)NC1CCOC1=O)NC[C@@H](N)CS (stereo partly drawn) [Compound 5-1, 2(S)-[2(S)-[2(R)-Amino-3-mercapto]-propylamino-3(S)-methyl]pentyloxy-3-phenylpropionyl-homoserine lactone] |  |  | prone to disulphide formation if left in solution and exposed to air |
